# Reference: publication PMC12523838, “Inhibition of Xanthine Oxidase by Four Phenolic Acids: Kinetic, Spectroscopic, Molecular Simulation, and Cellular Insights” (Foods, 2025)
# “And” between values parts separate entries of the source, which are not always exact repeats. Equal values may be shown once. “Also recorded” adds a separate entry of the source. Read-outs that look alike come from different tables or passages of the source.
# Experiments:
# BRL-3a cells = assay: UA levels in xanthine-treated BRL-3A cells; type: cell-based; details: vs model group
# Procedure: UA levels were measured following the method of Liu et al.. […] After 48 h of incubation, supernatants were collected, spun at 1000× g for 5 min, then the UA level was quantified with the UA assay kit.
# [1] = Reducing power (potassium ferricyanide, absorbance at 700 nm); details: concentration at which absorbance at 700 nm reached 0.5
# Procedure: The mixture was incubated at 50 °C for 20 min, after which 0.5 mL of 10% (,w/v) trichloroacetic acid solution was added. Following centrifugation at 3000 rpm for 10 min, 0.5 mL of the supernatant was transferred to a new test tube, and 0.5 mL of distilled water along with 0.1 mL of 0.1% (,w/v) ferric chloride solution were added. After 10 min of incubation, absorbance was measured at 700 nm. Higher absorbance values correspond to stronger reducing activity. The IC50 value was defined as the concentration at which the absorbance reached 0.5.
# [2] = ABTS radical scavenging activity
# Procedure: The modified ABTS assay was carried out as described by Foss et al. with appropriate modifications. A 7 mM ABTS solution was mixed in equal volumes with 2.45 mM potassium persulfate and kept in the dark at room temperature for 12–16 h to generate the ABTS•^+ stock solution. […] Absorbance was recorded at 734 nm. PBS served as the blank, while Trolox was used as the standard. The results were reported as IC50 value, representing the concentration of sample required to scavenge 50% of ABTS•^+ radicals.
# [3] = DPPH radical scavenging activity
# Procedure: The DPPH• scavenging capacity was evaluated following the method of Nakbi et al.. […] The mixture was vortexed and incubated at room temperature for 30 min. Absorbance was then measured at 517 nm and recorded as Ai. For the control experiment, 10 μL of anhydrous ethanol replaced the sample soluition, while all other steps were identical, and the absorbance was recorded as Ac. To correct for background, 10 μL of sample solution was mixed with 240 μL of anhydrous ethanol alone, and the absorbance at 517 nm was recorded as A0.
# [4] = Oxygen radical absorption capacity (ORAC)
# Procedure: The ORAC analysis method was adapted from Wang et al.with adjustments. The trial was conducted in 75 mM PBS (pH 7.4). […] AAPH was freshly dissolved in PBS at 38.25 mM and maintained in an ice-water bath. […] The reaction was initiated by adding 100 μL of AAPH solution, and fluorescence intensity was recorded every minute for 100 min to generate a fluorescence decay curve (Thermo Fisher Scientific, Waltham, MA, USA). Trolox served as the reference standard, while PBS functioned as the blank. ORAC values were determined from the net area under the fluorescence decay curve and expressed as Trolox equivalents per sample [22].
# XOD (xanthine oxidase) [5] = target: T1, XOD (xanthine oxidase) (Bos taurus, UniProt P80457); assay: XOD inhibitory activity in vitro (enzymatic reaction, HPLC of UA); type: biochemical, bovine
# T1 sequence (P80457 whole entry): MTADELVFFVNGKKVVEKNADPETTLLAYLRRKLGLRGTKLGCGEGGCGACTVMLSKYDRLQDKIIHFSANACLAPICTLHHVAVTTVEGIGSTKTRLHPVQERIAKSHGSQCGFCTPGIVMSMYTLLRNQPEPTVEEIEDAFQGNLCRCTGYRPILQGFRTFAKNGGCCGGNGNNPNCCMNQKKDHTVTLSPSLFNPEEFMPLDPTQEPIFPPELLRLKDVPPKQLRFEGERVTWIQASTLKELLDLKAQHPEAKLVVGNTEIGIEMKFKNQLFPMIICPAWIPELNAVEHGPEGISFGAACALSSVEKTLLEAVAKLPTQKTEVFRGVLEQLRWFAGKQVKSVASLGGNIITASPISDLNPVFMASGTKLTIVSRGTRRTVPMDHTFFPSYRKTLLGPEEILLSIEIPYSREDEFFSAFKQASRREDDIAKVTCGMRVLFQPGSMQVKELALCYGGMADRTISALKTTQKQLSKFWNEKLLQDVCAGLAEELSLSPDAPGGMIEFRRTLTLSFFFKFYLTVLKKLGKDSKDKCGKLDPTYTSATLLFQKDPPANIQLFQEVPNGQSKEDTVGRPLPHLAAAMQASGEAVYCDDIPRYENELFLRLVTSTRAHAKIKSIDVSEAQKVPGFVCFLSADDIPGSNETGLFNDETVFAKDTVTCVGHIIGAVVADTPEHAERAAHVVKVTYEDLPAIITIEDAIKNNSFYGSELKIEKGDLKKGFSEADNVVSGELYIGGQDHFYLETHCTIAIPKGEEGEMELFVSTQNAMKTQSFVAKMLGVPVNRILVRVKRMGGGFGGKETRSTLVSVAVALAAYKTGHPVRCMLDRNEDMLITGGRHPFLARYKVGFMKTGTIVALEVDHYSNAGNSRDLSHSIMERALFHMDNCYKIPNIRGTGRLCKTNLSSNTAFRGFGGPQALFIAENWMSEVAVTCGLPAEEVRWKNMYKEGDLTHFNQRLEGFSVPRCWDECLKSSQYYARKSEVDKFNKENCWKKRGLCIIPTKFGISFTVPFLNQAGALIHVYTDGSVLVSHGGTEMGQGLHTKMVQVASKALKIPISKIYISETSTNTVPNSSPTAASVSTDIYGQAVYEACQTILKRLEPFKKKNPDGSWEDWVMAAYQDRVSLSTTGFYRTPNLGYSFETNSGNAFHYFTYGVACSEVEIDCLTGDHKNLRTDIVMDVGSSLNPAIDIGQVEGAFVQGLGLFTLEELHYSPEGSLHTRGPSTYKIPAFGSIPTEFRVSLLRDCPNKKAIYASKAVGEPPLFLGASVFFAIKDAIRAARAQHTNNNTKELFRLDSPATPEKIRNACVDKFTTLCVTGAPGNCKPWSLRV
# Procedure: The XOD inhibitory activity of the samples was assessed using an enzymatic reaction followed by HPLC analysis. Briefly, 50 μL of XOD (0.05 U/mL in 200 mM PBS, pH 7.5) was combined with either 50 μL of PBS (control) or 50 μL of the sample solution. The reaction mixture was equilibrated at 37 °C for 5 min, after which 150 μL of 0.40 mM xanthine was added. The reaction proceeded at 37 °C for 10 min and was terminated by adding 80 μL of 1.0 M HCl.
# UA production was measured using an HPLC system (Agilent Technologies, Santa Clara, CA, USA) equipped with a UV detector. The reaction solution was diluted 20-fold and filtered, and 10 μL of the filtrate was injected into an Agilent Eclipse XDB-C18 column (150 × 4.6 mm, 5 μm). The mobile phase, consisting of 10% methanol and 90% 10 mM sodium phosphate buffer (pH 5.5), was delivered isocratically at 1.0 mL/min. UA was detected at 292 nm with the column maintained at 25 °C. Concentrations were calculated based on an external calibration curve. XOD inhibition was expressed as the percentage reduction of UA formation, and the IC50 value was defined as the sample concentration at which 50% inhibition was achieved.
# XOD (xanthine oxidase) [6] = target: T1, XOD (xanthine oxidase); assay: Kinetic mechanisms of XOD inhibition (Lineweaver-Burk); type: biochemical, bovine; details: for Inhibition types: Lineweaver-Burk plots; for Kis (inhibition constant for the XOD-substrate complex): mixed inhibition model; for Ki: read-out: Ki (inhibition constant for XOD)
# Procedure: The inhibition kinetics of XOD by FA, CA, GA, and PA were evaluated using Lineweaver–Burk plots. The inhibitor concentrations were as follows: FA (0, 2.0, 3.0, and 4.0 mM), CA (0, 1.0, 2.0, and 4.0 mM), GA (0.2, 1.0, 2.0, and 4.0 mM), and PA (1.0, 2.0, 5.0, and 10.0 mM). The substrate (xanthine) concentrations were fixed at 0.1, 0.2, 0.3, and 0.4 mM. XOD (0.05 U/mL) was used, and the initial reaction velocity (v) was calculated based on UA formation.
# Lineweaver–Burk plots were established by plotting 1/v against 1/[s] for each inhibitor concentration. Four linear regressions were obtained for each inhibitor, enabling the determination of the inhibition type. […] The slope and intercept of the Lineweaver–Burk plot were plotted against inhibitor concentration [I], yielding the following equations: (3) and (4).
# V denotes the reaction rate, Vmax the maximum rate, Km the Michaelis constant, Ki the inhibition constant for XOD, and Kis the inhibition constant for the XOD–substrate complex. Decreased Ki or Kis values indicate stronger inhibitory activity.
# XOD [7] = target: T2, XOD (Bos taurus, UniProt P80457); assay: Fluorescence quenching of XOD (Stern-Volmer); type: binding, bovine; details: for Kq (quenching rate constant) / n (number of binding sites): 298 K
# T2 construct: XOD (7.2 units/mL, derived from bovine milk); purchased Sigma-Aldrich (St. Louis, MO, USA); host or cells: bovine milk
# T2 sequence (P80457 whole entry): as above
# Procedure: In brief, 100 µL of XOD (0.05 U/mL in 200 mM PBS, pH 7.5) was combined with 100 µL of each phenolic acid at final concentrations of 0, 50, 100, 200, 300, 400, and 500 μM. The mixtures were incubated at 25 °C for 10 min, and fluorescence emission spectra were recorded using a microplate reader (Thermo Fisher Scientific, Waltham, MA, USA) with an excitation wavelength of 280 nm and an emission collected from 310 to 500 nm. PBS was used as the blank, and background fluorescence was subtracted to ensure accuracy.
# The binding mechanisms of FA, CA, GA, and PA to XOD were investigated using the fluorescence quenching method at seven different concentrations.
# F0 and F denote the fluorescence intensities of XOD in the absence and presence of quenchers (FA, CA, GA, and PA), respectively. The quenching constant (Ksv) is, obtained from the linear fitting of F0/F against the quencher concentration [Q]. The quenching rate constant is expressed as Kq, while τ0 represents the average lifetime of the fluorophore in the absence of a quencher (typically 10^−9 s). The effective quenching constant of the accessible fluorophore is designated as Ka, and fa corresponds to the fraction of fluorescence accessible to quenching. The binding constant is indicated by K, and n stands for the number of binding sites.
# XOD [8] = target: T2, XOD; assay: CD spectroscopy, secondary structure of XOD; parameters: species or system bovine; details: for α-helix content of XOD: XOD with phenolic acid (300 μM solution, equal volumes), XOD alone 36.70; for β-sheet content of XOD: XOD with phenolic acid, XOD alone 13.87
# Procedure: CD spectroscopy was employed to determine the conformational structure of XOD in the presence of phenolic compounds. Spectra were recorded in the wavelength range of 190–250 nm using a scanning rate of 100 nm/min, with continuous nitrogen purging at room temperature. XOD was prepared at 2.0 mg/mL in PBS (200 mM, pH 7.5) and then diluted 6-fold to 0.33 mg/mL. Phenolic compounds were dissolved in PBS at 300 μM, and equal volumes of XOD and phenolic solutions were joined in equal amounts. CD spectra of the mixtures were recorded with the PBS as the background, and secondary structure content of XOD was analyzed employing the SELCON3 algorithm on the DichroWeb server (http://dichroweb.cryst.bbk.ac.uk/html/home.shtml).
# The CONTIN program was used to determine the secondary structure composition of XOD (Figure 3B).
# [9] = XOD 0.05 U/mL, 0.40 mM xanthine, 37 °C, pH 7.5, read-out: IC50 of XOD inhibitory activity
SMILES,Reducing Power [1],IC50 [2],IC50 [3],ORAC Value ([4]; Trolox equivalents),IC50 (XOD (xanthine oxidase) [5]; [9]),Inhibition types (XOD (xanthine oxidase) [6]),Vmax (XOD (xanthine oxidase) [6]; inhibitor 1.0 mM),Vmax (XOD (xanthine oxidase) [6]; inhibitor 2.0 mM),Vmax (XOD (xanthine oxidase) [6]; inhibitor 4.0 mM),Kis (inhibition constant for the XOD-substrate complex) (XOD (xanthine oxidase) [6]),Ki (XOD (xanthine oxidase) [6]),Kd (XOD [7]),Kq (quenching rate constant) (XOD [7]),n (number of binding sites) (XOD [7]),α-helix content of XOD (XOD [8]),β-sheet content of XOD (XOD [8]),further results
"Oc1ncnc2[nH]ncc12 [allopurinol, reference compound]",,,,,,,,,,,,,,,,,"UA levels (BRL-3a cells; positive control, p < 0.05): significantly lower UA levels"
"O=C(O)/C=C/c1ccc(O)cc1 [p-Coumaric acid, p-coumaric acid]",6.98 ± 0.13 a mM,230 ± 10 µM,19400 ± 1240 µM,9.64 ± 0.27 b mmol TE/mmol,7610 ± 300 µM,Mixed inhibition,0.79 mM/min,0.74 mM/min,0.68 mM/min,6.04 mM,1420 µM,99.9 ± 4.49 µM,0.91 ± 0.01 1012 L*mol-1*s-1,1.01 ± 0.00,36.20%,14.70%,"Inhibition types (XOD (xanthine oxidase) [6]; listed as CA): mixed inhibition with competitive dominance; UA levels (BRL-3a cells; 25–100 μM, 1 mM xanthine, 48 h, p < 0.05, listed as CA): significantly reduced uric acid (UA) concentration; also recorded: significantly reduced UA levels"
"COc1cc(/C=C/C(=O)O)ccc1O [Ferulic acid, ferulic acid]",0.74 ± 0.05 c mM,300 µM,800 ± 30 µM,7.99 ± 0.24 c mmol TE/mmol,2040 ± 110 µM,Mixed inhibition,,1.39 mM/min,0.95 mM/min,1.78 mM,890 µM,7140 µM,0.16 ± 0.01 1012 L*mol-1*s-1,0.70 ± 0.01,36.37%,14.07%,"Inhibition types (XOD (xanthine oxidase) [6]; listed as FA): mixed inhibition with competitive dominance; Vmax (XOD (xanthine oxidase) [6]; inhibitor 3.0 mM): 1.04 mM/min; UA levels (BRL-3a cells; 25–100 μM, 1 mM xanthine, 48 h, p < 0.05, listed as FA): significantly reduced uric acid (UA) concentration; also recorded: significantly reduced UA levels"
"Cc1c(C)c2c(c(C)c1O)CCC(C)(C(=O)O)O2 (stereo not drawn) [Trolox, 6-Hydroxy-2,5,7,8-tetramethylchromane-2-carboxylic acid, reference compound]",2.62 ± 0.20 mM and 2.62 ± 0.20 b (Trolox) mM,3410 ± 120 µM,680 ± 10 µM,,,,,,,,,,,,,,
"O=C(O)c1ccc(O)c(O)c1 [Protocatechuic acid, protocatechuic acid]",0.12 ± 0.01 mM·days,400 ± 20 µM,620 µM,6.63 ± 0.09 d mmol TE/mmol,12700 ± 670 µM,Mixed inhibition,0.79 mM/min,0.72 mM/min,,17.76 mM,3210 µM,719 µM,0.18 ± 0.01 1012 L*mol-1*s-1,0.98 ± 0.02,35.77%,14.47%,"Reducing Power ([1]; listed as PA): 0.12 ± 0.01 mM; Inhibition types (XOD (xanthine oxidase) [6]; listed as PA): mixed inhibition with competitive dominance; Vmax (XOD (xanthine oxidase) [6]; inhibitor 5.0 mM): 0.69 mM/min; Vmax (XOD (xanthine oxidase) [6]; inhibitor 10.0 mM): 0.68 mM/min; UA levels (BRL-3a cells; 25–100 μM, 1 mM xanthine, 48 h, p < 0.05, listed as PA): significantly reduced uric acid (UA) concentration; also recorded: significantly reduced UA levels"
"O=C(O)c1cc(O)c(O)c(O)c1 [Gallic acid, gallic acid]",0.20 ± 0.01 mM·days,20 µM,180 ± 10 µM,20.12 ± 0.74 a mmol TE/mmol,,Mixed inhibition,4.83 mM/min,4.72 mM/min,3.61 mM/min,3.05 mM,,139 µM,0.26 ± 0.01 1012 L*mol-1*s-1,1.13 ± 0.00,37.33%,13.30%,"Reducing Power ([1]; listed as GA): 0.20 ± 0.01 mM; ORAC Value [4]: 20.12 ± 0.74 mM; IC50 (XOD (xanthine oxidase) [5]): 870 ± 30 µM; inhibitory efficacy of GA relative to PA (XOD IC50) (XOD (xanthine oxidase) [5]; GA vs PA): approximately 14.62 fold; Inhibition types (XOD (xanthine oxidase) [6]; listed as GA): mixed but predominantly non-competitive inhibition; Vmax (XOD (xanthine oxidase) [6]; inhibitor 0.2 mM): 4.90 mM/min; UA levels (BRL-3a cells; 25 μM, 1 mM xanthine, 48 h, listed as GA): significantly reduced UA levels"
